Measurements: patent US12569468B2, “Use of palovarotene in treatment against HBV virus” (YANG SHENG TANG COMPANY, LTD., priority 2020, dated 2026)

Test system: HBV
Assay: Inhibitory effect on HBV infection in infection model HepG2-hNTCP 2B1 (drug before infection)
Type: cell-based, hepatitis B virus
Settings: 1, 5, 25 μM, drug from 24 h before infection to day 8, compared with blank group
Description: The human sodium-taurocholate cotransporting polypeptide (hNTCP) gene and the red fluorescent protein (mCherry) gene were constructed in a bicistronic expression cassette regulated by tetracycline-inducible promoter, the expression cassette was stably integrated into HepG2-Tet On cells by using a lentiviral system, a stable cell line HepG2-hNTCP 2B1 with high expression of hNTCP was obtained by using flow cytometry sorting technology, and this cell model supported HBV infection and generated HBV-related indicators. (For the construction method of this cell model, please refer to: Ya-Li Zhang, Ying Gao, Jia-Li Cao, Jing-Hua Zhao, Tian-Ying Zhang, ChuanLai Yang, Hua-Long Xiong, Ying-Bin Wang, Shan-Hai Ou, Tong Cheng, Chang-Rong Chen, Quan Yuan & Ning-Shao Xia (2019), Robust in vitro assay for analyzing the neutralization activity of serum specimens against hepatitis B virus, Emerging Microbes & Infections, 8:1, 724-733, DOI: 10.1080/22221751.2019.1619485).
This experiment was carried out in a 24-well culture plate.
About 1.5×10^5 HepG2-hNTCP 2B1 cells were plated in each well, and 500 μL of medium B was added. After the cells adhered, medium A was used for replacement to perform the induction with Doxycycline during the whole experiment.
After 72 hours of the induction with Doxycycline, 500 μL of drug-containing medium A was added to each well to perform drug treatment for 24 h, and then the cells were infected with HBV, the virus amount for infection per well was 100 MOI. Before infection, HBV solution was obtained by diluting HBV in medium C, and the infection volume was 250 μL per well. […]
HBsAg (chemiluminescence enzyme immunoassay (CLEIA), product standard number: YZB/Guo 0346-2014) and HBeAg (enzyme-linked immunosorbent assay (ELISA), product standard number: YZB/Guo 0216-2013) were detected using the Beijing Wantai Company's detection kits, and the specifical detection operations were carried out according to the detection methods described in the instructions in the kits.
After the collected cells were washed with PBS, automated extraction was performed on a nucleic acid extraction workstation (purchased from GenMagBio, model: DOF-9696) using a viral DNA & RNA extraction kit (Beijing GenMagBio) (for the extraction procedure, please refer to the instrument manual) to obtain HBV DNA. The HBV DNA was quantified by probe real-time fluorescent quantitative PCR, in which the reagent used was Premix Ex Taq™ (Takara), the instrument used was Roche's LightCycler® 96, the primer sequences used for fluorescence quantification were shown in Table 1, and the fluorescence quantitative reaction system was shown in Table 2. […]

[1] = p<0.05, dose-dependent in some extent

CC1(C)CCC(C)(C)c2cc(Cn3cccn3)c(/C=C/c3ccc(C(=O)O)cc3)cc21 [Palovarotene]
effectively inhibit: level of HBV cccDNA (p<0.0001, dose-dependent in some extent) | level of intracellular HBV DNA (p<0.001, dose-dependent in some extent) | level of HBeAg in the cell supernatant [1] | level of HBsAg in the cell supernatant [1]
